Test results published in patent US20110294810A1, “SUBSTITUTED (PYRIDYL)-AZINYLAMINE DERIVATIVES AS PLANT PROTECTION AGENTS” (priority 2008, published 2011).
Like-named read-outs stand apart in the source and are kept apart here.

How the values were obtained:
[1] = Measurement of logP values by HPLC on reversed phase columns (EEC directive 79/831 Annex V.A8); format: physicochemical; conditions: for chromatographic logP: reversed phase HPLC column
Puccinia recondita = assay: In vivo test on Puccinia recondita (brown rust), wheat plants; conditions: 500 ppm, wheat plants sprayed 24 hours before contamination, grading 10 days after contamination
Procedure: Wheat plants (Scipion variety) sown on 50/50 peat soil-pozzolana substrate in starter cups and grown at 12° C., are treated at the 1-leaf stage (10 cm tall) by spraying with the aqueous suspension described above. Plants, used as controls, are treated with an aqueous solution not containing the active material. After 24 hours, the plants are contaminated by spraying the leaves with an aqueous suspension of Puccinia recondita spores (100,000 spores per ml). […] The contaminated wheat plants are incubated for 24 hours at 20° C. and at 100% relative humidity, and then for 10 days at 20° C. and at 70% relative humidity. Grading is carried out 10 days after the contamination, in comparison with the control plants. Under these conditions, good (at least 70%) or total protection is observed at a dose of 500 ppm with the following compound: A4

Phakopsora pachyrhizi = assay: Phakopsora test (soybeans) / protective; format: in vivo; conditions: 500 ppm of active ingredient, evaluated 11 days after inoculation
Procedure: Solvent: 28.5 parts by weight of acetone Emulsifier: 1.5 parts by weight of polyoxyethylene alkyl phenyl ether
To produce a suitable preparation of active compound, 1 part by weight of active compound is mixed with the stated amounts of solvent and emulsifier, and the concentrate is diluted with water to the desired concentration.
To test for protective activity, young plants are sprayed with the preparation of active compound at the stated rate of application. One day after spraying, the plants are inoculated with an aqueous spore suspension of the causal agent of soybean rust (Phakopsora pachyrhizi). The plants are then placed in a greenhouse at approximately 20° C. and a relative atmospheric humidity of approximately 80%.
The test is evaluated 11 days after the inoculation. 0% means an efficacy which corresponds to that of the control, while an efficacy of 100% means that no disease is observed.

Peronospora parasitica = assay: In vivo test on Peronospora parasitica (crucifer downy mildew), cabbage plants; conditions: 500 ppm, cabbage plants sprayed 24 hours before contamination, grading 5 days after contamination
Procedure: Cabbage plants (Eminence variety) in starter cups, sown on a 50/50 peat soil-pozzolana substrate and grown at 18-20° C., are treated at the cotyledon stage by spraying with the aqueous suspension described above. Plants, used as controls, are treated with an aqueous solution not containing the active material. After 24 hours, the plants are contaminated by spraying them with an aqueous suspension of Peronospora parasitica spores (50 000 spores per ml). The spores are collected from infected plant. The contaminated cabbage plants are incubated for 5 days at 20° C., under a humid atmosphere. Grading is carried out 5 days after the contamination, in comparison with the control plants. Under these conditions, good (at least 70%) or total protection is observed at a dose of 500 ppm with the following compound: C2

Cochliobolus miyabeanus = assay: Cochliobolus test (rice) / protective; format: in vivo; conditions: 250 ppm of active ingredient, evaluated 4 days after inoculation
Pyricularia oryzae = format: in vivo; conditions: 250 ppm of active ingredient, rice, protective, evaluated 5 days after inoculation
[2] = HPLC on reversed phase columns, usual method: LC-MS at pH 2.7, 0.1% formic acid in water / acetonitrile, linear gradient 10% to 95% acetonitrile, read-out: logP
[3] = LC-MS at pH 7.8, 0.001 molar ammonium hydrogen carbonate in water, gradient 10% to 95% acetonitrile, read-out: log p [c]
[4] = HPLC on reversed phase columns, usually LC-MS at pH 2.7 with 0.1% formic acid in water and acetonitrile, linear gradient 10% to 95% acetonitrile

SMILES: CC(=O)NCc1cc(-c2ccnc(Nc3cccc(Cl)c3)n2)ccn1 [Compound A4]
- log p ([1]; pH 2.7): 2.03
- protection (good, at least 70%, or total) (Puccinia recondita): at least 70%

SMILES: OCc1cc(-c2ccnc(Nc3cccc(Cl)c3)n2)ccn1 [Compound A14, (4-{2-[(3-chlorophenyl)amino]pyrimidin-4-yl}pyridin-2-yl)methanol]
- chromatographic logP ([1]; HPLC on reversed phase columns, usually LC-MS at pH 2.7 with 0.1% formic acid in water and acetonitrile, linear gradient 10% to 95% acetonitrile, read-out: log p): 1.91
- efficacy (Phakopsora pachyrhizi): ≥ 80%

SMILES: N#CCc1cc(-c2ccnc(Nc3cccc(Cl)c3)n2)ccn1 [Compound A94]
- log p ([1]; pH 2.7): 2.94

SMILES: CCSCCN(C=O)Cc1cc(-c2ccnc(Nc3cccc(Cl)c3)n2)ccn1 [Compound A96]
- log p ([1]; pH 2.7): 3.17

SMILES: CCC(C)CNC(C)c1cc(-c2ccnc(Nc3cccc(Cl)c3)n2)ccn1 (stereo not shown) [Compound A97, N-(3-chlorophenyl)-4-(2-{1-[(2-methylbutyl)amino]ethyl}pyridin-4-yl)pyrimidin-2-amine]
- chromatographic logP [1, 2]: 2.13

SMILES: CC(=O)OC(C)c1cc(-c2ccnc(Nc3cccc(Cl)c3)n2)ccn1 (stereo not shown) [Compound A98, 1-(4-{2-[(3-chlorophenyl)amino]pyrimidin-4-yl}pyridin-2-yl)ethyl acetate]
- chromatographic logP [1, 2]: 3.33

SMILES: COCC(C)C(=O)OC(C)c1cc(-c2ccnc(Nc3cccc(Cl)c3)n2)ccn1 (stereo not shown) [Compound A99]
- log p ([1]; pH 2.7): 3.83

SMILES: CC(C)(C)OC(=O)NCc1cc(-c2ncnc(Nc3cccc(Cl)c3)n2)ccn1 [Compound C1]
- log p ([1]; pH 2.7): 3.1

SMILES: CC(N)c1cc(-c2ncnc(Nc3cccc(Cl)c3)n2)ccn1 (stereo not shown) [Compound C2, 4-[2-(1-aminoethyl)pyridin-4-yl]-N-(3-chlorophenyl)-1,3,5-triazin-2-amine]
- chromatographic logP [1, 3]: 1.81
- protection (good, at least 70%, or total) (Peronospora parasitica): at least 70%
- efficacy (Cochliobolus miyabeanus): ≥ 80%
- efficacy (Pyricularia oryzae): ≥ 80%

SMILES: CC(C)OC(=O)NCc1cc(-c2ncnc(Nc3cccc(Cl)c3)n2)ccn1 [Compound C3]
- log p ([1]; pH 2.7): 2.94

SMILES: CCOC(=O)NCc1cc(-c2ncnc(Nc3cccc(Cl)c3)n2)ccn1 [Compound C4, ethyl[(4-{4-[(3-chlorophenyl)amino]-1,3,5-triazin-2-yl}pyridin-2-yl)methyl]carbamate]
- chromatographic logP ([1]; LC-MS at pH 2.7, 0.1% formic acid in water / acetonitrile, gradient 10% to 95% acetonitrile, read-out: log p): 2.64

SMILES: C=COC(=O)NCc1cc(-c2ncnc(Nc3cccc(Cl)c3)n2)ccn1 [Compound C5]
- log p ([1]; pH 2.7): 2.84

SMILES: NCc1cc(-c2ncnc(Nc3cccc(Cl)c3)n2)ccn1 [Compound C6, 4-[2-(aminomethyl)pyridin-4-yl]-N-(3-chlorophenyl)-1,3,5-triazin-2-amine]
- chromatographic logP [1, 3]: 1.74

SMILES: O=C(NCc1cc(-c2ccnc(Nc3cccc(Cl)c3)n2)ccn1)C1CCCC1 [Example A3]
- log p ([1]; pH 2.7): 2.88

SMILES: C=C(C)C(=O)NCc1cc(-c2ccnc(Nc3cccc(Cl)c3)n2)ccn1 [Example A8]
- log p ([1]; pH 2.7): 2.6

SMILES: COCC(=O)NCc1cc(-c2ccnc(Nc3cccc(Cl)c3)n2)ccn1 [Example A11]
- log p ([1]; pH 2.7): 2.33

SMILES: CCCC(=O)OCc1cc(-c2ccnc(Nc3cccc(Cl)c3)n2)ccn1 [Example A20]
- log p ([1]; pH 2.7): 3.83

SMILES: CCC(=O)OCc1cc(-c2ccnc(Nc3cccc(Cl)c3)n2)ccn1 [Example A22]
- log p ([1]; pH 2.7): 3.44

SMILES: CCCCC(=O)OCc1cc(-c2ccnc(Nc3cccc(Cl)c3)n2)ccn1 [Example A23]
- log p ([1]; pH 2.7): 4.29

SMILES: CC(C)(C)C(=O)OCc1cc(-c2ccnc(Nc3cccc(Cl)c3)n2)ccn1 [Example A24]
- log p ([1]; pH 2.7): 4.31

SMILES: CC(C)CC(=O)OCc1cc(-c2ccnc(N(C(=O)CC(C)C)c3cccc(Cl)c3)n2)ccn1 [Example A27]
- log p ([1]; pH 2.7): 4.56

SMILES: CCC(=O)OCc1cc(-c2ccnc(N(C(=O)CC)c3cccc(Cl)c3)n2)ccn1 [Example A28]
- log p ([1]; pH 2.7): 3.11

SMILES: CCCCC(=O)OCc1cc(-c2ccnc(N(C(=O)CCCC)c3cccc(Cl)c3)n2)ccn1 [Example A29]
- log p ([1]; pH 2.7): 4.65

SMILES: CC(C)(C)C(=O)OCc1cc(-c2ccnc(N(C(=O)C(C)(C)C)c3cccc(Cl)c3)n2)ccn1 [Example A30]
- log p ([1]; pH 2.7): 4.7

SMILES: CC(C)C(=O)OCc1cc(-c2ccnc(N(C(=O)C(C)C)c3cccc(Cl)c3)n2)ccn1 [Example A32]
- log p ([1]; pH 2.7): 3.83

SMILES: COCCC(=O)OCc1cc(-c2ccnc(Nc3cccc(Cl)c3)n2)ccn1 [Example A34]
- log p ([1]; pH 2.7): 3.13

SMILES: O=C(OCc1cc(-c2ccnc(N(C(=O)C3CCCC3)c3cccc(Cl)c3)n2)ccn1)C1CCCC1 [Example A35]
- log p ([1]; pH 2.7): 4.86

SMILES: C#CCN(C)Cc1cc(-c2ccnc(Nc3cccc(Cl)c3)n2)ccn1 [Example A39]
- log p [1, 4]: 1.75

SMILES: CN(Cc1cc(-c2ccnc(Nc3cccc(Cl)c3)n2)ccn1)CC1CC1 [Example A40]
- log p [1, 4]: 1.84

SMILES: CC(C)N(C)Cc1cc(-c2ccnc(Nc3cccc(Cl)c3)n2)ccn1 [Example A42]
- log p ([1]; pH 2.7): 1.79

SMILES: CN(Cc1cc(-c2ccnc(Nc3cccc(Cl)c3)n2)ccn1)C(C)(C)C [Example A43]
- log p ([1]; pH 2.7): 1.84

SMILES: Clc1cccc(Nc2nccc(-c3ccnc(CN4CCCC4)c3)n2)c1 [Example A47]
- log p [1, 4]: 1.7

SMILES: CC1CC(C)CN(Cc2cc(-c3ccnc(Nc4cccc(Cl)c4)n3)ccn2)C1 (stereo not shown) [Example A48]
- log p ([1]; pH 2.7): 2.1

SMILES: Clc1cccc(Nc2nccc(-c3ccnc(CN4CCOCC4)c3)n2)c1 [Example A50]
- log p ([1]; pH 2.7): 1.6

SMILES: CN1CCN(Cc2cc(-c3ccnc(Nc4cccc(Cl)c4)n3)ccn2)CC1 [Example A54]
- log p ([1]; pH 2.7): 1.45

SMILES: Clc1cccc(Nc2nccc(-c3ccnc(CN4CCSCC4)c3)n2)c1 [Example A55]
- log p ([1]; pH 2.7): 1.78

SMILES: CN(C)C1CCN(Cc2cc(-c3ccnc(Nc4cccc(Cl)c4)n3)ccn2)CC1 [Example A56]
- log p [1, 4]: 1.1

SMILES: CCOC(=O)C1CCCN(Cc2cc(-c3ccnc(Nc4cccc(Cl)c4)n3)ccn2)C1 (stereo not shown) [Example A57]
- log p [1, 4]: 1.98

SMILES: COCC1CCCN1Cc1cc(-c2ccnc(Nc3cccc(Cl)c3)n2)ccn1 (stereo not shown) [Example A62]
- log p ([1]; pH 2.7): 1.82

SMILES: CCSCCNCc1cc(-c2ccnc(Nc3cccc(Cl)c3)n2)ccn1 [Example A66]
- log p ([1]; pH 2.7): 2.1

SMILES: CSCc1cc(-c2ccnc(Nc3cccc(Cl)c3)n2)ccn1 [Example A67]
- log p [1, 4]: 3.17

SMILES: Clc1cccc(Nc2nccc(-c3ccnc(CI)c3)n2)c1 [Example A68]
- log p ([1]; pH 2.7): 3.73

SMILES: CCCCCSCc1cc(-c2ccnc(Nc3cccc(Cl)c3)n2)ccn1 [Example A74]
- log p ([1]; pH 2.7): 5.08

SMILES: C=CCSCc1cc(-c2ccnc(Nc3cccc(Cl)c3)n2)ccn1 [Example A75]
- log p ([1]; pH 2.7): 3.8

SMILES: CC(C)(C)CCSCc1cc(-c2ccnc(Nc3cccc(Cl)c3)n2)ccn1 [Example A78]
- log p ([1]; pH 2.7): 5.34

SMILES: FC(F)(F)CSCc1cc(-c2ccnc(Nc3cccc(Cl)c3)n2)ccn1 [Example A79]
- log p ([1]; pH 2.7): 4.01

SMILES: CN(C)CCSCc1cc(-c2ccnc(Nc3cccc(Cl)c3)n2)ccn1 [Example A82]
- log p ([1]; pH 2.7): 1.75

SMILES: CCOC(=O)CCSCc1cc(-c2ccnc(Nc3cccc(Cl)c3)n2)ccn1 [Example A85]
- log p ([1]; pH 2.7): 3.67

SMILES: CC(C)CCSCc1cc(-c2ccnc(Nc3cccc(Cl)c3)n2)ccn1 [Example A86]
- log p ([1]; pH 2.7): 4.97

SMILES: CCOCCNCc1cc(-c2ccnc(Nc3cccc(Cl)c3)n2)ccn1 [Example A95]
- log p ([1]; pH 2.7): 1.84
